Several values for one entry are separate records, joined by “and”; a condition that tells them apart may be missing. Equal entries are not always repeated.
Tested on: 323965-272-R-J2-PDC complex spheroid viability
Experiment: Anticancer human tumor 323965-272-R-J2-PDC patient-derived pancreatic carcinoma cell line growth inhibition [CLK]
Conditions: for viability, T/C: stronger effect = lower value
Summary of the method: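 Multi-cell-type spheroids combined patient-derived tumor cells with HUVEC endothelial cells and human mesenchymal stem cells. Paired agents were dosed in half-log steps down from about clinical Cmax, or from 10 microM where Cmax was unknown.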
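Further: spheroids exposed to agents for seven days before readout.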
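Wherever viability, T/C is given: percent of DMSO vehicle control wells so 100% = untreated growth.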

SMILES: C=CC(=O)Nc1cc(Nc2nccc(-c3cn(C)c4ccccc34)n2)c(OC)cc1N(C)CCN(C)C + CN1CCN(c2cc(C(=O)Nc3cc4cc(-c5cnn(C)c5)ccc4cn3)ccn2)CC1
- IC50 (curve of first compound, second compound 0.0316 µM): > 300 nM
- IC50 (curve of first compound, second compound 0.1 µM): > 300 nM
- IC50 (curve of first compound, second compound 0.316 µM): < 0.949 nM
- IC50 (curve of first compound, second compound 1 µM): < 0.949 nM
- IC50 (curve of first compound, second compound 3.16 µM): < 0.949 nM
- IC50 (curve of first compound, second compound 10 µM): < 0.949 nM
- viability, T/C (second compound 0.0316 µM, first compound 0.000949 µM): 92.1%
- viability, T/C (second compound 0.0316 µM, first compound 0.003 µM): 86.8%
- viability, T/C (second compound 0.0316 µM, first compound 0.00949 µM): 89.3%
- viability, T/C (second compound 0.0316 µM, first compound 0.03 µM): 89.6%
- viability, T/C (second compound 0.0316 µM, first compound 0.0949 µM): 82%
- viability, T/C (second compound 0.0316 µM, first compound 0.3 µM): 75.8%
- viability, T/C (second compound 0.1 µM, first compound 0.000949 µM): 73.2%
- viability, T/C (second compound 0.1 µM, first compound 0.003 µM): 76.4%
- viability, T/C (second compound 0.1 µM, first compound 0.00949 µM): 59.1%
- viability, T/C (second compound 0.1 µM, first compound 0.03 µM): 61.8%
- viability, T/C (second compound 0.1 µM, first compound 0.0949 µM): 52.2%
- viability, T/C (second compound 0.1 µM, first compound 0.3 µM): 51.4%
- viability, T/C (second compound 0.316 µM, first compound 0.000949 µM): 21.9%
- viability, T/C (second compound 0.316 µM, first compound 0.003 µM): 26.8%
- viability, T/C (second compound 0.316 µM, first compound 0.00949 µM): 21.4%
- viability, T/C (second compound 0.316 µM, first compound 0.03 µM): 19.1%
- viability, T/C (second compound 0.316 µM, first compound 0.0949 µM): 17.7%
- viability, T/C (second compound 0.316 µM, first compound 0.3 µM): 17.3%
- viability, T/C (second compound 1 µM, first compound 0.000949 µM): 3.35%
- viability, T/C (second compound 1 µM, first compound 0.003 µM): 2.76%
- viability, T/C (second compound 1 µM, first compound 0.00949 µM): 7.03%
- viability, T/C (second compound 1 µM, first compound 0.03 µM): 2.91%
- viability, T/C (second compound 1 µM, first compound 0.0949 µM): 2.48%
- viability, T/C (second compound 1 µM, first compound 0.3 µM): 2.38%
- viability, T/C (second compound 3.16 µM, first compound 0.000949 µM): 3.68%
- viability, T/C (second compound 3.16 µM, first compound 0.003 µM): 3.94%
- viability, T/C (second compound 3.16 µM, first compound 0.00949 µM): 5.04%
- viability, T/C (second compound 3.16 µM, first compound 0.03 µM): 2.7%
- viability, T/C (second compound 3.16 µM, first compound 0.0949 µM): 2.6%
- viability, T/C (second compound 3.16 µM, first compound 0.3 µM): 3.13%
- viability, T/C (second compound 10 µM, first compound 0.000949 µM): 4.03%
- viability, T/C (second compound 10 µM, first compound 0.003 µM): 4.64%
- viability, T/C (second compound 10 µM, first compound 0.00949 µM): 4.92%
- viability, T/C (second compound 10 µM, first compound 0.03 µM): 3.05%
- viability, T/C (second compound 10 µM, first compound 0.0949 µM): 2.71%
- viability, T/C (second compound 10 µM, first compound 0.3 µM): 3.08%

SMILES: Nc1ccccc1NC(=O)c1ccc(CNC(=O)OCc2cccnc2)cc1
- viability, T/C (compound 0.0316 µM): 115% and 110%
- viability, T/C (compound 0.1 µM): 103% and 104%
- viability, T/C (compound 0.316 µM): 101% and 95.5%
- viability, T/C (compound 1 µM): 89.1% and 86.3%
- viability, T/C (compound 3.16 µM): 72.6% and 61.8%
- viability, T/C (compound 10 µM): 47.9% and 43.9%
- IC50 (curve of compound): 9390 nM and 6890 nM

From PubChem BioAssay AID2060619 (Molecular Pharmacology Branch, DTP, NCI, 2025)
